According to patent US10981899B2, “Inhibitors of soluble adenylyl cyclase” (CORNELL UNIVERSITY, priority 2016, dated 2021):

How the values were obtained:
human sACt protein [1] = target: T1, human sACt protein (Homo sapiens (Human), UniProt Q96PN6); test: Primary high-throughput screen for sAC inhibitors (RF-MSS cyclase assay); type: biochemical; conditions: screened at 10 μM; 1 mM ATP, 5 mM MgCl2, 5 mM CaCl2, 40 mM NaHCO3
Description: This instrument also includes a Zymark Twister® robotic arm that handles microtiter plates and a purification SPE system. 35 μl of sample was aspirated from each well of a 384-well reaction microtiter plate and then injected onto a graphitized carbon SPE column extraction cartridge, washing with aqueous alkaline buffer and eluting it in an alkaline/organic solvent, onto the electrospray-MS, where the mass spectra of each sample was collected. The RapidFire sipper was washed between sample injections using organic (25% acetonitrile, 25% acetone in 5 mM ammonium acetate, pH 10) and aqueous (5 mM ammonium acetate, pH 10) solvents. RapidFire mass spectrometry screening data were processed and analyzed using Agilent MassHunter Software.
The primary screen was performed in polystyrene 384-well microplates (Greiner Bio One International AG). […] The reagents were dispensed using a liquid handling instrument Multidrop™ Combi Assay buffer (50 mM Tris pH 7.5, 5 mM CaCl2, 5 mM MgCl2, 40 mM NaHCO3, 2 mM DTT) was added first on the 384-well plate (Greiner Bio-One) followed by the compounds. The small molecule compounds were dispensed with a nanohead containing a 384-well array of Norgren Kloehn nanosyringes, and each plate was bar-coded. The human sACt protein was added next followed by the remainder of the assay buffer. […]

human sACt protein [2] = target: T1, human sACt protein; test: RF-MSS in vitro cyclase assay, concentration-response
Description: To avoid assay dependent artifacts, reproducibility and concentration-dependency were simultaneously assessed in the RF-MSS cyclase assay as well as in an independent colorimetric competitive enzyme immunoassay (i.e., ELISA-based Correlate-EIA Direct cAMP Assay). […] This instrument also includes a Zymark Twister® robotic arm that handles microtiter plates and a purification SPE system. 35 μl of sample was aspirated from each well of a 384-well reaction microtiter plate and then injected onto a graphitized carbon SPE column extraction cartridge, washing with aqueous alkaline buffer and eluting it in an alkaline/organic solvent, onto the electrospray-MS, where the mass spectra of each sample was collected. The RapidFire sipper was washed between sample injections using organic (25% acetonitrile, 25% acetone in 5 mM ammonium acetate, pH 10) and aqueous (5 mM ammonium acetate, pH 10) solvents. RapidFire mass spectrometry screening data were processed and analyzed using Agilent MassHunter Software.

sAC = sAC (Homo sapiens (Human), UniProt Q96PN6); test: ELISA-based Correlate-EIA Direct cAMP Assay of in vitro sAC activity
Description: To avoid assay dependent artifacts, reproducibility and concentration-dependency were simultaneously assessed in the RF-MSS cyclase assay as well as in an independent colorimetric competitive enzyme immunoassay (i.e., ELISA-based Correlate-EIA Direct cAMP Assay).

MEFs = test: CellTiter-Glo cytotoxicity assay; type: cell-based, mouse
Description: Cell viability, as determined by CellTiter-Glo, is shown as luminescence; values are averages of triplicate determinations ±S.E.M. of a representative experiment repeated at least two times. […] Data represent single measurements of a representative experiment repeated at least two times.
(§1) The next day, compounds were added (ten concentrations), and the plates were incubated for 24 or 48 hrs at 37° C./5% CO2, and viability was quantified by measuring cellular ATP using luminescence (CellTiter-Glo®, Promega, Madison, Wis., USA) or viability based upon amount of DNA (CyQUANT®, ThermoFisher).

[3] = CyQUANT cell proliferation/viability assay; type: cell-based
Description: as §1

mouse brain mitochondria = test: Membrane potential in isolated mouse brain mitochondria (uncoupling); conditions: 50 and 100 μM LRE1, 50 μM KH7

T1 sequence (Q96PN6 1-469): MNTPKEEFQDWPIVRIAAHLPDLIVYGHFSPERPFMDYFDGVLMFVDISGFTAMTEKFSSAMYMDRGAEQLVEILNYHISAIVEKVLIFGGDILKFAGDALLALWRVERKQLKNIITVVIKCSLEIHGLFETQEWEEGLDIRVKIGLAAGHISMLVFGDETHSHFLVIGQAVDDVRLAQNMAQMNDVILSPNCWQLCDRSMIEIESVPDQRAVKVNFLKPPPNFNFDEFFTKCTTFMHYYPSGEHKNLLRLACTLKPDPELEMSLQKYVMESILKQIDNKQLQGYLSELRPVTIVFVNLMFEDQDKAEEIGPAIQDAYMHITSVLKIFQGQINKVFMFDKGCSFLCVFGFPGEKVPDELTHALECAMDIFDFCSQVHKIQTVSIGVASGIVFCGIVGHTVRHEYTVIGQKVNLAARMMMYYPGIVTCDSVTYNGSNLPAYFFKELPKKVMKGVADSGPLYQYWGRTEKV
Chain of sAC (Q96PN6 1-469): as above

Primary Screen (% NPI) (human sACt protein [1])	IC50 (human sACt protein [2]) [µM]	IC50 (sAC) [µM]	mitochondrial uncoupling (mouse brain mitochondria)	Structure (SMILES)	toxicity (CellTiter-Glo) (MEFs; 2 days in culture, WT MEFs, KH7 at low μM, LRE1 up to 50 μM)	toxicity (CellTiter-Glo) (MEFs; single day in culture)	toxicity (CyQUANT) ([3]; second day)	toxicity (CyQUANT) ([3]; single day)
58.1	> 20	> 20		Cc1cccc(-n2nc(S)sc2=S)c1 [RU-0207328]				
			uncoupling effect	CC(Sc1nc2ccccc2[nH]1)C(=O)N/N=C/c1cc(Br)ccc1O (centres unmarked) [KH7]	toxic	neither compound exhibited significant toxicity	toxic at low μM concentrations	neither LRE1 nor KH7 were toxic
